Results on 15 compounds are retold here after patent publication US11332470B2, “CXCR4 inhibitors and uses thereof” (X4 Pharmaceuticals, Inc., priority 2016, dated 2022).

Assay [1] concerns the target T1, CXCR4 (Jurkat cells expressing CXCR4) (Homo sapiens, UniProt P61073).
T1 construct: Jurkat cells expressing CXCR4; endogenous in cells; host or cells: Jurkat
Description: Chemokine (CXCL12-AF647) binding inhibition assay. As to conditions: CXCL12-AF647 25 ng/mL, read-out: IC50 CXCL-12 binding Jurkat. The procedure: Chemokine (CXCL12-AF647) Binding Inhibition Assay
Jurkat cells expressing CXCR4 were washed once with assay buffer (Hanks' balanced salt solution with 20 mM HEPES buffer and 0.2% bovine serum albumin, pH 7.4) and then incubated for 15 min at room temperature with the test compounds diluted in assay buffer at dose-dependent concentrations. Subsequently, CXCL12-AF647 (25 ng/mL) was added to the compound-incubated cells. The cells were incubated for 30 min at room temperature. Thereafter, the cells were washed twice in assay buffer, fixed in 1% paraformaldehyde in PBS, and analyzed on the FL4 channel of a FACSCalibur flow cytometer equipped with a 635-nm red diode laser (Becton Dickinson, San Jose, Calif., USA).
The percentages of inhibition of CXCL12-AF647 binding were calculated according to the formula: [1−((MFI−MFINC)/(MFIPC−MFINC))]×100 where MFI is the mean fluorescence intensity of the cells incubated with CXCL12-AF647 in the presence of the inhibitor, MFINC is the mean fluorescence intensity measured in the negative control (i.e., autofluorescence of unlabeled cells), and MFIPC is the mean fluorescence intensity of the positive control (i.e., cells exposed to CXCL12-AF647 alone).

The target of a further assay is T2, CXCR4 (U87.CXCR4 cells) (Homo sapiens, UniProt P61073).
T2 construct: expressed in transfected cells; host or cells: U87 (U87.CXCR4)
T2 sequence (P61073 whole entry): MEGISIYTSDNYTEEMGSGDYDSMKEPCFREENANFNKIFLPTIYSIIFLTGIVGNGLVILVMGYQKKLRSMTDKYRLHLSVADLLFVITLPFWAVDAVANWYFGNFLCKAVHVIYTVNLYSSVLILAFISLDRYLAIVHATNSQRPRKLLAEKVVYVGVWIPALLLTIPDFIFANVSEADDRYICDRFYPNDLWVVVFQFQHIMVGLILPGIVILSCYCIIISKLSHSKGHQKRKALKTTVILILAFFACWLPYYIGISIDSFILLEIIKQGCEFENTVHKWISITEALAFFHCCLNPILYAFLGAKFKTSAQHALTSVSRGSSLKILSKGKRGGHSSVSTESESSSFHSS
Description: Intracellular CXCL-12-induced calcium mobilization assay (FLIPR). As to conditions: CXCL-12 25-50 ng/mL, read-out: IC50 CXCL-12 Ca2+ flux U87.CXCR4+. In kind it is cell-based. The procedure: Intracellular CXCL-12-Induced Calcium Mobilization Assay
Intracellular calcium mobilization induced by chemokines or chemokine-derived peptides were evaluated using a calcium responsive fluorescent probe and a FLIPR system. The CXCR-4 transfected U87 cell line (U87.CXCR4) cells were seeded in gelatine-coated black-wall 96-well plates at 20,000 cells per well and incubated for 12 hours. Cells were then loaded with the fluorescent calcium probe Fluo-2 acetoxymethyl at 4 μM final concentration in assay buffer (Hanks' balanced salt solution with 20 mM HEPES buffer and 0.2% bovine serum albumin, pH 7.4) for 45 min at 37° C. The intracellular calcium mobilization induced by the CXCL-12 (25-50 ng/mL) was then measured at 37° C. by monitoring the fluorescence as a function of time in all the wells simultaneously using a fluorometric imaging plate reader (FLIPR Tetra, Molecular Devices).

T1 sequence (P61073 whole entry): as above

For the compound `Cc1cccnc1C1CCCN1Cc1cccc(CC2CCN(C)CC2)n1` (stereo not drawn) [Compound I-116], the IC50 (in assay [1]; at CXCR4 (U87.CXCR4 cells)) was at least 1000 nM each time.

In the case of `Cc1cccnc1C1CCCN1C(=O)c1cn2c(N3CCN(C)CC3)cccc2n1` (stereo not drawn) [Compound I-74], the IC50 (in assay [1]; at CXCR4 (U87.CXCR4 cells)) was at least 1000 nM each time.

On to `Cc1cccnc1CN1CCCC1c1nc2ccccc2n1C1CCN(C)CC1` (stereo not drawn) [Compound I-77], for which the IC50 was 0.01 to 100 nM in assay [1] and at least 1000 nM at CXCR4 (U87.CXCR4 cells).

As for `c1ccc(C2CCCN2Cc2nc3ccccn3c2N2CCN(c3ccncc3)CC2)nc1` (stereo not drawn) [Compound I-133], the IC50 is 100 to 1000 nM in assay [1] and at least 1000 nM on CXCR4 (U87.CXCR4 cells).

Take `Cc1cccnc1C1CCCN1Cc1nc2ccccn2c1CCC#N` (stereo not drawn) [Compound I-81]: the values for the IC50 (in assay [1]; on CXCR4 (U87.CXCR4 cells)) were 100 to 1000 nM and at least 1000 nM, respectively.

On to `Cc1cccnc1CN1CCCC1c1nc2ccccn2c1N1CCN(C)CC1` (stereo not drawn) [Compound I-100], for which the IC50 (in assay [1]; on CXCR4 (U87.CXCR4 cells)) was 0.01 to 100 nM throughout.

Consider `c1ccc(C2CCCN2Cc2nc3ccccn3c2COc2cccnc2)nc1` (stereo not drawn) [Compound I-95], for which the IC50 (in assay [1]; on CXCR4 (U87.CXCR4 cells)) was at least 1000 nM each time.

In the case of `Cc1cccnc1C1CCCN1Cc1nc2cccc(N3CCN(C)CC3)c2o1` (stereo not drawn) [Compound I-71], the IC50 in assay [1] is 100 to 1000 nM; on CXCR4 (U87.CXCR4 cells), at least 1000 nM.

For the compound `c1ccc(C2CCCN2Cc2ncccc2-n2cccn2)nc1` (stereo not drawn) [Compound I-67], the IC50 (in assay [1]; at CXCR4 (U87.CXCR4 cells)) was at least 1000 nM throughout.

On to `Cc1cccnc1C1CCCN1Cc1cccc(C(=O)Nc2ccncc2)n1` (stereo not drawn) [Compound I-90], for which the results for the IC50 (in assay [1]; at CXCR4 (U87.CXCR4 cells)) were 100 to 1000 nM and at least 1000 nM, respectively.

On to `Cc1cccnc1C1CCCN1Cc1ncccc1-n1cccn1` (stereo not drawn) [Compound I-66], for which the IC50 is 100 to 1000 nM in assay [1] and at least 1000 nM on CXCR4 (U87.CXCR4 cells).

In the case of `Cc1cccnc1C1CCCN1Cc1cc2c(N3CCN(C)CC3)cccc2o1` (stereo not drawn) [Compound I-73], the IC50 is 100 to 1000 nM in assay [1] and at least 1000 nM on CXCR4 (U87.CXCR4 cells).

`Cc1cccnc1C1CCCN1Cc1nccn1-c1ccccn1` (stereo not drawn) [Compound I-113]: the IC50 (in assay [1]; at CXCR4 (U87.CXCR4 cells)) was at least 1000 nM each time.

Consider `Cc1cccnc1CN1CCCC1c1cn2c(N3CCN(CC(F)(F)F)CC3)cccc2n1` (stereo not drawn) [Compound I-129], for which the IC50 (in assay [1]; on CXCR4 (U87.CXCR4 cells)) was at least 1000 nM in each case.

Take `Cc1cccnc1C1CCCN1Cc1nc2c(N3CCN(C)CC3)cccc2o1` (stereo not drawn) [Compound I-72]: the IC50 (in assay [1]; on CXCR4 (U87.CXCR4 cells)) was at least 1000 nM each time.
